US20210077469A1, “PHARMACEUTICAL COMBINATIONS OF EGFR INHIBITORS AND METHODS OF USE THEREOF” (DANA-FARBER CANCER INSTITUTE, INC., priority 2018, published 2021)

Molecular target: L858R/T790M EGFR (Homo sapiens, UniProt P00533, L858R/T790M)
Details: Ba/F3 cells harboring L858R/T790M EGFR treated with inhibitor; lysates immunoprecipitated by biotinylated Compound A; FIG. 2A
Procedure: 15-20 μg of proteins lysates were aliquoted and loaded at the same time as the pull down assay to ensure the presence of EGFR protein, phospho-EGFR activity. Tubulin expression was assessed to ensure even loading of gels. 500 μg of protein was incubated with either biotinylated-linker (control) or with biotinylated Compound A for two hours before 50% NeutrAvidin agarose beads (Thermo Fisher Scientific) slurry was added for an hour to precipitate the EGFR that was associated to the biotinylated allosteric inhibitor. The beads were then washed three times with PBS containing 1% IGEPAL and an insulin syringe was used to remove extraneous buffer before the samples were suspended in 2×SDS sample preparation buffer for Western blotting analyses. All experiments were performed at least three times.

Sequence of L858R/T790M EGFR (P00533 25-1210 T790M/L858R): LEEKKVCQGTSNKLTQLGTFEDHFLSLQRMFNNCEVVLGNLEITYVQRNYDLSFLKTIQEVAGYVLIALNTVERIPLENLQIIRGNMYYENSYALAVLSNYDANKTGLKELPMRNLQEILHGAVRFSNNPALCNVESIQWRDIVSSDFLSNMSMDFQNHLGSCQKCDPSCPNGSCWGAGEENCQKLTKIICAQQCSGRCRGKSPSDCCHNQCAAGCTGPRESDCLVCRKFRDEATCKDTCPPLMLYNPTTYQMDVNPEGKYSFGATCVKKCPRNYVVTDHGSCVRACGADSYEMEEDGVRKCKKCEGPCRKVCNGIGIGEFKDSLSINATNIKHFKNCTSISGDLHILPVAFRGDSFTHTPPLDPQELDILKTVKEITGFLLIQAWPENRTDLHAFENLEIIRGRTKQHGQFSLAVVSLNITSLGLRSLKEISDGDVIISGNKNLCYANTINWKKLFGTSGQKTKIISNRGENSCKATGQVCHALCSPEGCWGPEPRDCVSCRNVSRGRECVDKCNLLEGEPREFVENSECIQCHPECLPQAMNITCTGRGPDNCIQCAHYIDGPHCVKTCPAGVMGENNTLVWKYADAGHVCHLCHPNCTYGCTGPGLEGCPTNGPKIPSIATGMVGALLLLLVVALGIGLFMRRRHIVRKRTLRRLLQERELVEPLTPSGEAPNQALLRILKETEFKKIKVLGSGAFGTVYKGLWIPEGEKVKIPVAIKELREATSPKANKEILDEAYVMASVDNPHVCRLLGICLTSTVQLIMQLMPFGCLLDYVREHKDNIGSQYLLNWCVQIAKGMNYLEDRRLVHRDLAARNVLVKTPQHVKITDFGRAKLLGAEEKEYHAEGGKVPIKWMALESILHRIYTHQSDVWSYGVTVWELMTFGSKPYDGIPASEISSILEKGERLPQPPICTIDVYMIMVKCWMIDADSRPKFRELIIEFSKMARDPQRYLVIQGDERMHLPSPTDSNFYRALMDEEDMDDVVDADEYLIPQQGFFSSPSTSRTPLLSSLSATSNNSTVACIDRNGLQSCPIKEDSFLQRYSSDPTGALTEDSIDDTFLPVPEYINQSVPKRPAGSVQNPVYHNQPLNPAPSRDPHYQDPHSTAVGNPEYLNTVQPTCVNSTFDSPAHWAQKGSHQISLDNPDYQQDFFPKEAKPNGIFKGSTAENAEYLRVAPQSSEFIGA

interference with binding of Compound A to EGFR: interfere
Structure (SMILES): C=CC(=O)Nc1cccc(Oc2nc(Nc3ccc(N4CCN(C)CC4)cc3OC)ncc2Cl)c1 [WZ-4002]
